Molecules are shown by their SMILES. Values after ≈ are worked out from the molar mass of the structure shown. Bounds are passed on as bounds.

The subject of one data set is Aspergillus fumigatus. Put plainly: M38-P microdilution MIC/MFC. The format is cell-based. The note with it: Table 16, 48 h, 35° C. For orientation: Broth dilution looks for growth in wells or tubes with falling amounts of substance.
A further data set deals with Fonsecaea pedrosoi. Description: M38-P microdilution MIC/MFC. In kind it is cell-based. To be noted: Table 16, Dematiaceous fungi.
The next data set deals with F. chlamydosporum. Description: M38-P microdilution MIC/MFC. The note with it: Table 16, 48 h, 35° C. In kind it is cell-based.
The subject of the next data set is Paecilomyces variotii. Put plainly: M38-P microdilution MIC/MFC. In kind it is cell-based. The note with it: Table 16, 48 h, 35° C.
Another data set deals with Cryptococcus neoformans. Description: M38-P microdilution MIC/MFC. The format is cell-based. To be noted: Table 16, 24 h, 35° C.
For another data set, the system named is R. oryzae. Put plainly: M38-P microdilution MIC/MFC. The format is cell-based. To be noted: Table 16, 48 h, 35° C.
The subject of the next data set is C. glabrate RMIT 157. Description: M38-P microdilution MIC/MFC. In kind it is cell-based. The note with it: Table 16, 24 h, 35° C.
For data set [1], the system named is C. guillermondii RMIT 176. Description: M38-P microdilution MIC/MFC. In kind it is cell-based. The note with it: Table 16, 24 h, 35° C.
Another data set concerns A. Niger. Put plainly: M38-P microdilution MIC/MFC. In kind it is cell-based. To be noted: Table 16, 48 h, 35° C.
The test system of the next data set is Rhizomucor pusillus. Description: M38-P microdilution MIC/MFC. The format is cell-based. The note with it: Table 16, 48 h, 35° C.
In another data set the test system is C. krusei RMIT 177. Put plainly: M38-P microdilution MIC/MFC. The note with it: Table 16, 24 h, 35° C. The format is cell-based.
Another data set has as its system Rhizopus stoloniefer. Description: M38-P microdilution MIC/MFC. In kind it is cell-based. The note with it: Table 16, 48 h, 35° C.
The next data set concerns Pseudoallescheria boydii. Put plainly: M38-P microdilution MIC/MFC. The format is cell-based. To be noted: Table 16, Dematiaceous fungi.
In a further data set the test system is C. tropicalis RMIT 181. Put plainly: M38-P microdilution MIC/MFC. The format is cell-based. The note with it: Table 16, 24 h, 35° C.
A further data set deals with Phialophora verrucosa. Description: M38-P microdilution MIC/MFC. To be noted: Table 16, Dematiaceous fungi. The format is cell-based.
The subject of the next data set is Candida albicans. Description: M38-P microdilution MIC/MFC. In kind it is cell-based. The note with it: Table 16, 24 h, 35° C.
The next data set concerns Fusarium graminearum. Put plainly: microbe, parasite or virus in culture. The format is cell-based. The note with it: Table 16; M38-P; 48 h, 35° C.
Another data set has as its system A. Flavus. Description: M38-P microdilution MIC/MFC. In kind it is cell-based. The note with it: Table 16, 48 h, 35° C.
The test system of another data set is C. parapsilosis RMIT 178. Description: M38-P microdilution MIC/MFC. In kind it is cell-based. To be noted: Table 16, 24 h, 35° C.
Data set [2] has as its system Corynebacterium paratuberculosis. Put plainly: Anti-bacterial activity in vivo, infected mice. As to the method: The therapeutic and prophylactic effect of the substances was determined in experiments in vivo on mice, infected intraperitoneally or intranasally with Corynebacterium paratuberculosis.
The next data set relates to Salmonella intranasally. Put plainly: Anti-bacterial activity in vivo, infected mice. The note with it: schedule +2, +3; 200 mg/kg intramuscularly.
In data set [3] the test system is skin wounds infected by Streptococcus and Staphylococcus. Put plainly: Treatment of infected wounds, human volunteers. The note with it: 0.1% ointment for 3 days. The format is in vivo. As to the method:
Human volunteers suffering from skin wounds infected by Streptococcus and Staphylococcus were treated with 0.1% Compounds (1) and (2) in an ointment base of vaseline, sheep fat, and sulfoxide.

With `C[C@@H]1[C@H](O)[C@@H](C)/C=C/C=C/C=C/C=C/C=C/C=C/C=C/[C@H](O[C@@H]2O[C@H](C)[C@@H](O)[C@H](N)[C@@H]2O)C[C@@H]2O[C@](O)(C[C@@H](O)C[C@@H](O)[C@H](O)CC[C@@H](O)C[C@@H](O)CC(=O)O[C@H]1C)C[C@H](O)[C@H]2C(=O)O` [Amphotericin B], the MMC in the data set on Aspergillus fumigatus stood at 8 µg/mL; in the data set with Fonsecaea pedrosoi it was 16 µg/mL; with F. chlamydosporum, 2 µg/mL; with Paecilomyces variotii, 1 µg/mL; in the data set on R. oryzae, 4 µg/mL; in the data set on C. glabrate RMIT 157, 1 µg/mL. Moreover, the MMC in data set [1] was found to be 0.06 µg/mL; in the data set with A. Niger it was 2 µg/mL; with Rhizomucor pusillus, 1 µg/mL; with C. krusei RMIT 177, 0.5 µg/mL; in the data set on Pseudoallescheria boydii, 16 µg/mL; in the data set on C. tropicalis RMIT 181, 0.5 µg/mL. Also, the MMC in the data set on Phialophora verrucosa is 4 µg/mL; in the data set with Candida albicans, 0.25 µg/mL; in the data set on Fusarium graminearum, 8 µg/mL; in the data set with A. Flavus, 8 µg/mL; with C. parapsilosis RMIT 178, 0.25 µg/mL. The MIC was 8 µg/mL (≈ 8.66 µM) against Fonsecaea pedrosoi; 2 µg/mL (≈ 2.16 µM) in the data set on F. chlamydosporum; 1 µg/mL (≈ 1.08 µM) in the data set with Paecilomyces variotii; 0.5 µg/mL (≈ 0.541 µM) in the data set with Cryptococcus neoformans; 4 µg/mL (≈ 4.33 µM) in the data set with R. oryzae; 0.5 µg/mL (≈ 0.541 µM) with C. glabrate RMIT 157. The MIC in data set [1] was 0.03 µg/mL (≈ 0.0325 µM); in the data set on A. Niger it was 2 µg/mL (≈ 2.16 µM); against Rhizomucor pusillus it was 1 µg/mL (≈ 1.08 µM); against C. krusei RMIT 177, 0.52 µg/mL (≈ 0.563 µM); in the data set with Rhizopus stoloniefer it was >16 µg/mL; against Pseudoallescheria boydii, 4 µg/mL (≈ 4.33 µM). Moreover, the MIC in the data set with C. tropicalis RMIT 181 was found to be 0.25 µg/mL (≈ 0.271 µM); against Phialophora verrucosa, 2 µg/mL (≈ 2.16 µM); in the data set on Candida albicans, 0.251 µg/mL (≈ 0.272 µM); with Fusarium graminearum, 4 µg/mL (≈ 4.33 µM); in the data set on A. Flavus, 8 µg/mL (≈ 8.66 µM); in the data set on C. parapsilosis RMIT 178 it was 0.253 µg/mL (≈ 0.274 µM).

`O=[N+]([O-])/C=C/c1ccc2c(c1)OCO2` [Compound (2), 3,4-methylenedioxy-β-nitrostyrene]: the “therapeutic and prophylactic activity” value in data set [2] is “showed therapeutic and prophylactic activity”. Besides, in the data set on Salmonella intranasally, the “Cumulative mortality (test)” value is 15 and the “Incubation period days (test)” value was determined as 1 days. In “Solubility”, the “solubility in organic solvents” value is “soluble in acetone, alcohol, acetic acid and in a majority of organic solvents”; the solubility in water result is recorded as “non-soluble in water”. In addition, the “clearing of infected wound” value in data set [3] is reported as “cleared the wound completely of pus”.

Values taken from US20150258059A1, “ANTIMICROBIAL AND RADIOPROTECTIVE COMPOUNDS” (BioDiem, Ltd, priority 2001, published 2015).
